How the values were obtained:
[1] = test system: SARS-CoV-2; test: SARS-CoV-2 virus production in Vero E6 cells (TCID50); type: cell-based; settings: for antiviral activity (conclusion, in words): SARS-CoV-2; for IC50: Severe acute respiratory syndrome coronavirus 2, Vero C1008, TCID50, Vero E6 cells, MOI 10^−3; for virus production (in words): increased drug concentration, dose response
Experimental: (§1) Seeding of cells and treatment with compound of interest were performed with each compound in triplicate at 5 concentrations, including negative and positive controls. Infection with SARS-CoV-2 was performed at one MOI (multiplicity of infection). Viral particles were recovered in the supernatant after incubation and quantification using TCID50 (tissue culture infectious dose 50%) and RT-PCR was performed. Toxicity measurement of compounds was made on separate cell lines. D1: cell seeding on 96 wells plate, Vero E6 cells. Growth conditions: medium DMEM high glucose (Dutsher L0104-500, lot MS008A) D2: dilution of compounds was carried out in a mix of 100% DMSO diluted to 50% in PBS (NACL-2) or in PBS at […] to avoid solubility issues of some compounds. Compounds were tested at 5 concentrations, from 10^−4 M to 10^−8 M by serial tenfold dilutions. Infection with SARS-CoV-2 clinical strain was performed to MOI 10^−3. D3: viral titers were determined by TCID50 method and calculated by the Spearman & Kärber algorithm. RT-qPCR on gene E of SARS-CoV-2 was determined by Taqman One-Step RT-qPCR. Infection process: at T0 infection was performed with SARS-CoV-2 MOI 10^−3 (0.001). At T0+1 h virus was removed and the plates were washed with PBS (2×1 mL), 1 mL medium was then added with compound from 100 μM to 10 nM. A 24 h incubation step was carried out. At T0+25 h, 500 μL of supernatant was recovered and TCID50 processing and RT-qPCR were performed. Following 4 additional days of incubation the endpoint was obtained and TCI D50 reading and calculation was performed.

[2] = test system: SARS-CoV-2; test: SARS-CoV-2 genome copy number by RT-qPCR on gene E (Vero E6 cells); type: cell-based; settings: for genome copy number (in words): increased drug concentration
Experimental: as §1

[3] = in vitro; settings: human
[4] = test system: Vero cells; test: Toxicity testing on Vero cells; settings: for CC50: Vero cells, 24 h post treatment
[5] = Toxicity testing on Vero cells; settings: African green monkey, Vero cells, CC50, Vero cells, 24 h post treatment

Structure (SMILES) | antiviral activity (conclusion, in words) [1] | IC50 [1] [µM] | virus production (in words) [1] | IC50 times lower than that of NACI-1 ([1]; virus production IC50) [times] | genome copy number (in words) [2] | CC50 [3] [µM] | CC50 [4] [µM] | CC50 at 24 h [5] [µM] | log decrease in viral production ([1]; at 10 μM) [log] | toxicity observed in virus production test ([1]; at 100 μM) | IC50 times lower than that of Remdesivir ([1]; virus production IC50) [times] | IC50 ([2]; Severe acute respiratory syndrome coronavirus 2, Vero C1008, RT-qPCR on gene E, Vero E6 cells) [µM] | log decrease in copy genome ([2]; at 10 μM) [log] | toxicity observed in RT-qPCR test ([2]; at 100 μM) | CC50 ([4]; listed as clitocine) [µM] | toxicity on Vero cells (in words) ([4]; depending on the concentration used)
NC(=O)c1ncn([C@@H]2O[C@H](CO)[C@@H](O)[C@H]2O)c1O [Mizoribine, 1-[(2R,3R,4S,5R)-3,4-dihydroxy-5-(hydroxymethyl)oxolan-2-yl]-5-hydroxy-1H-imidazole-4-carboxamide] | Potent antiviral activity | 0.66 | decrease significantly | 3 | does not impact | 850 | 191 | 191 | – | – | – | – | – | – | – | –
Nc1ncnc(N[C@@H]2O[C@H](CO)[C@@H](O)[C@H]2O)c1[N+](=O)[O-] [Compound 1, (2R,3R,4S,5R)-2-[(6-amino-5-nitropyrimidin-4-yl)amino]-5-(hydroxymethyl)oxolane-3,4-diol] | Potent antiviral activity | 0.188 | decrease significantly | – | decrease significantly | 108 | – | 3.09 | 3 | some toxicity was observed | 5 | 0.176 | ~2 | some toxicity was observed | 3.09 | some degree of toxicity
